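Compound exposure: 48 hours, 5 concentrations, 96-well plates. Definition used: TGI = concentration required for complete inhibition of growth.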

What is called TGI is the concentration at which net growth stops. The low end stands for greater sensitivity of the cells, the high end for lower sensitivity of the cells.

One experiment relates to 786-0 renal. The experiment in a line: DTP human tumour cell line panel, 48 h.
With `Cc1ccc2c(c1)nc(N)n[n+]2[O-]`, the TGI is more than 100 µM.
On the same count and under the same terms, the figure for `Cc1cn(C2CC(N)C(CN)O2)c(=O)[nH]c1=O` (stereo not given) is more than 100 µM; for `Nc1nc2ncc(SCc3ccc(C(=O)NC(CCC(=O)O)C(=O)O)cc3)cc2c(=O)[nH]1` (stereo not given) it is more than 100 µM.
With `COc1ccc2c(c1)c1c(n2CCN2CCOCC2)-c2ccccc2CC1`, the TGI is 92.1 µM.
Same read-out and setting: under `CCOC(=O)c1cc(C2(O)CCN(Cc3ccccc3)C2=O)c(-c2cc(C)no2)[nH]1` (stereo not given) stands more than 100 µM.
For `Clc1nc(Cl)nc(NC23CC4CC(CC(C4)C2)C3)n1`, the TGI amounted to 31.2 µM.
In turn, `CCOC(=O)c1cc(=C2\CCN(CC(C)CC)C2=S)/c(=C(/O)CC)[nH]1` (stereo not given) gave a TGI of 30.5 µM.
On the same count and under the same terms, under `OCC1CCCC(n2cnc3c(=S)nc[nH]c32)O1` (stereo not given) stands more than 100 µM.
The compound `COc1cc2oc(-c3ccc(O)cc3)c(OC3OC(C)C(O)C(O)C3O)c(=O)c2c(O)c1OC` (stereo not given) registered a TGI of more than 100 µM.
Same read-out and setting: the figure for `CC1(C)CC2(C)CC1CC2O` (stereo not given) is more than 100 µM; for `Clc1cc(N/N=C(/c2ccccc2)c2ncccn2)ncn1` it is 79.3 µM; for `N#CC1=C(N)OC2=C(CSc3ccccc32)C1c1ccc(Br)cc1` (stereo not given) it is 22.8 µM.
Still for that read-out and setting: under `O=C1CC(C(O)CO)CC(=O)N1` (stereo not given) stands more than 100 µM; under `Cc1c(Cl)ccc2c(=O)c3cccc(CC(=O)O)c3oc12`, more than 100 µM; under `O=c1oc2ccccc2c(O)c1C(c1cc(OCc2ccccc2)cc(OCc2ccccc2)c1)c1c(O)c2ccccc2oc1=O`, 31.7 µM.
Take `Cc1c(/C=N\NC(=S)N2CCN(C(=S)N/N=C\c3c(C)n(C)n(-c4ccccc4)c3=O)CC2)c(=O)n(-c2ccccc2)n1C`: the TGI was more than 100 µM.
Still for that read-out and setting: the figure for `Cc1cc2c(c(C(=O)NCCC(=O)O)c1)Oc1c(cc(C)cc1C(=O)NCCC(=O)O)S2` is more than 100 µM.
With `CCN(CC)CCn1c2cc3c(cc2c(=O)c2cccnc21)OCCO3`, the concentration for total growth inhibition (TGI) was more than 10 µM.

In a further experiment the test system is ACHN renal. Nature of the experiment: DTP human tumour cell line panel, 48 h.
In the case of `Cc1ccc2c(c1)nc(N)n[n+]2[O-]`, the TGI is more than 100 µM.
On the same count and under the same terms, the figure for `Cc1cn(C2CC(N)C(CN)O2)c(=O)[nH]c1=O` (stereo not given) is more than 100 µM; for `Nc1nc2ncc(SCc3ccc(C(=O)NC(CCC(=O)O)C(=O)O)cc3)cc2c(=O)[nH]1` (stereo not given) it is more than 100 µM; for `COc1ccc2c(c1)c1c(n2CCN2CCOCC2)-c2ccccc2CC1` it is more than 100 µM.
The same measure, in the same setting: the figure for `CCOC(=O)c1cc(C2(O)CCN(Cc3ccccc3)C2=O)c(-c2cc(C)no2)[nH]1` (stereo not given) is more than 100 µM; for `Clc1nc(Cl)nc(NC23CC4CC(CC(C4)C2)C3)n1` it is more than 57.7 µM.
The same measure, in the same setting: the figure for `CCOC(=O)c1cc(=C2\CCN(CC(C)CC)C2=S)/c(=C(/O)CC)[nH]1` (stereo not given) is 28.9 µM; for `OCC1CCCC(n2cnc3c(=S)nc[nH]c32)O1` (stereo not given) it is more than 100 µM.
`COc1cc2oc(-c3ccc(O)cc3)c(OC3OC(C)C(O)C(O)C3O)c(=O)c2c(O)c1OC` (stereo not given): the TGI was more than 100 µM.
As for `Clc1cc(N/N=C(/c2ccccc2)c2ncccn2)ncn1`, the TGI came out at 22.9 µM.
Still for that read-out and setting: under `O=C1CC(C(O)CO)CC(=O)N1` (stereo not given) stands more than 100 µM; under `Cc1c(Cl)ccc2c(=O)c3cccc(CC(=O)O)c3oc12`, more than 100 µM; under `O=c1oc2ccccc2c(O)c1C(c1cc(OCc2ccccc2)cc(OCc2ccccc2)c1)c1c(O)c2ccccc2oc1=O`, 7.99 µM.
Regarding `Cc1c(/C=N\NC(=S)N2CCN(C(=S)N/N=C\c3c(C)n(C)n(-c4ccccc4)c3=O)CC2)c(=O)n(-c2ccccc2)n1C`, the TGI was more than 100 µM.
Turning to `Cc1cc2c(c(C(=O)NCCC(=O)O)c1)Oc1c(cc(C)cc1C(=O)NCCC(=O)O)S2`, the TGI was more than 100 µM.
On the same count and under the same terms, the figure for `CCN(CC)CCn1c2cc3c(cc2c(=O)c2cccnc21)OCCO3` is more than 10 µM.

The test system of another experiment is BT-549 breast. The experiment in a line: DTP human tumour cell line panel, 48 h.
In turn, `Cc1ccc2c(c1)nc(N)n[n+]2[O-]` showed a TGI of more than 100 µM.
In the case of `Cc1cn(C2CC(N)C(CN)O2)c(=O)[nH]c1=O` (stereo not given), the concentration for total growth inhibition (TGI) is more than 100 µM.
Compound `Nc1nc2ncc(SCc3ccc(C(=O)NC(CCC(=O)O)C(=O)O)cc3)cc2c(=O)[nH]1` (stereo not given) showed a TGI of more than 100 µM.
In the case of `COc1ccc2c(c1)c1c(n2CCN2CCOCC2)-c2ccccc2CC1`, the TGI was more than 100 µM.
Still for that read-out and setting: the figure for `CCOC(=O)c1cc(C2(O)CCN(Cc3ccccc3)C2=O)c(-c2cc(C)no2)[nH]1` (stereo not given) is more than 100 µM.
Same read-out and setting: under `Clc1nc(Cl)nc(NC23CC4CC(CC(C4)C2)C3)n1` stands 35.6 µM.
In turn, `CCOC(=O)c1cc(=C2\CCN(CC(C)CC)C2=S)/c(=C(/O)CC)[nH]1` (stereo not given) showed a TGI of 35.4 µM.
`OCC1CCCC(n2cnc3c(=S)nc[nH]c32)O1` (stereo not given) gave a TGI of more than 100 µM.
`COc1cc2oc(-c3ccc(O)cc3)c(OC3OC(C)C(O)C(O)C3O)c(=O)c2c(O)c1OC` (stereo not given): the TGI was more than 100 µM.
On the same count and under the same terms, under `CC1(C)CC2(C)CC1CC2O` (stereo not given) stands more than 100 µM; under `Clc1cc(N/N=C(/c2ccccc2)c2ncccn2)ncn1`, more than 100 µM; under `N#CC1=C(N)OC2=C(CSc3ccccc32)C1c1ccc(Br)cc1` (stereo not given), 28.4 µM.
Still for that read-out and setting: the figure for `O=C1CC(C(O)CO)CC(=O)N1` (stereo not given) is more than 100 µM; for `Cc1c(Cl)ccc2c(=O)c3cccc(CC(=O)O)c3oc12` it is more than 100 µM.
The same measure, in the same setting: under `O=c1oc2ccccc2c(O)c1C(c1cc(OCc2ccccc2)cc(OCc2ccccc2)c1)c1c(O)c2ccccc2oc1=O` stands 20.9 µM; under `Cc1c(/C=N\NC(=S)N2CCN(C(=S)N/N=C\c3c(C)n(C)n(-c4ccccc4)c3=O)CC2)c(=O)n(-c2ccccc2)n1C`, more than 100 µM.
